Here are results for eleven molecules from patent US8617534B2, “Compositions and method for manipulating PIM-1 activity in circulatory system cells” (San Diego State University (SDSU) Foundation, priority 2007, dated 2013).

One assay relates to PIM-1. Put plainly: PIM-1 expression in cultured cardiomyocytes (immunoblot, confocal microscopy). The assay is classed as cell-based, rat. As to conditions: for PIM-1 protein level (immunoblot): 2 hour exposure; for PIM-1 immunoreactivity by confocal microscopy / induction of PIM-1 expression: treatment for 2 hours; for PIM-1 immunoreactivity by confocal microscopy: compared to control cells. As to the method: Neonatal Rat Cardiomyocyte Cultures infections and treatments. Neonatal rat cardiomyocyte cultures were prepared as described previously^12. Cells to be subjected to treatments were placed in media with 2% serum overnight and then treated with the appropriate agent and harvested or fixed after the pre-described timepoint. Cardiomyocytes were infected with adenovirus for two hours, washed in PBS and then re-fed M199 with 2% FBS and 50 μg/ml pen/strep, and 100 μM glutamine.
Immunoblotting. Infected cardiomyocytes were harvested 24 hours after infection in SDS denaturing sample buffer, sonicated and boiled for 10 minutes, and quantitated using the Bradford assay. Mouse whole heart lysates were generated from flash frozen hearts pulverized in a mortar and pestle then resuspended in SDS denaturing sample buffer, sonicated, boiled for 10 minutes and quantitated using Bradford assay. […] Blots were blocked in 3% BSA for 1 hour, and probed with primary antibodies (PIM-1 (Cell Signaling Technology), c-jun (Cell Signaling Technology), HISTONE3™ (Cell Signaling Technology), GFP (Molecular Probes), bcl-2 (Santa Cruz), bcl-XL (Cell Signaling Technology), PHOSPHO-BADS112™ (Biosource) AKT (Cell Signaling Technology), GAPDH (Research Diagnostics Inc.), PHOSPHO-AKTS473™ (Cell Signaling Technology), total PARP (Biosource), cleaved PARP (Biosource), and cleaved caspase3 (Cell Signaling Technologies)) diluted in blocking solution overnight at 4° C. Blots were washed in TBS-0.5% Tween three times and probed with fluorescent or alkaline phosphatase conjugated secondary antibodies diluted 1:5000 in blocking solution for 1 hour at room temperature followed by three washes in TBS-0.5% Tween. […] All quantitation is based on standardization to loading controls.
Immunohistochemistry. Hearts were fixed and embedded and cardiomyocytes fixed and permeabilized as described previously^12. Staining of cultured neonatal rat cardiomyocytes was performed with antibodies described above diluted 1:25 in PBS containing 10% horse serum overnight at 4° C. Slides were washed in PBS and probed with fluorescent conjugated secondary antibodies (1:100) for one hour at room temperature, and Texas Red phalloidin (1:50 Molecular Probes) to identify actin filaments. Slides were washed three times in PBS, and stained for 30 minutes with TOPRO-3™ (1:5000 Molecular Probes) to identify nuclei, washed once and cover-slipped using […]™ (Vectra Labs). Paraffin embedded samples were cut at 4 μm and deparaffinized through a standard series of Xylene and graded Ethanol steps to water. Antigen retrieval was performed in 10 mM Citrate pH6.0. PIM-1 and phospho-AKT signals were amplified using the TYRAMIDE AMPLIFICATION KIT™ (Perkin Elmer) with primary concentrations of 1:500 for both antibodies, and secondaries 1:3000. Slides were washed following the amplification process, and stained with TOPRO-3 (Molecular Probes) to identify nuclei, washed and cover-slipped with […]™ (Vectra Labs). Confocal imaging of stained slides was performed on a Leica LCS confocal microscope. For comparison purposes, all slides were treated identically and scanned using the same settings in each experiment.
In general terms: Immunoblotting shows a protein as a band on a membrane.

The test system of assay [1] is neonatal rat cardiomyocytes (NRCMs). Kind of assay: Endothelin-1 induced hypertrophy, cell surface area of neonatal rat cardiomyocytes. The assay is classed as cell-based. Particulars: 10 nM for 1 hour prior to 48 hour incubation with ET-1; compared to ET-1 stimulated cells without inhibitor.
Procedure: The impact of Pim-wt overexpression upon cardiomyocyte hypertrophy was initially examined using neonatal rat cardiomyocytes (NRCMs) infected with adenoviruses encoding EGFP-Pim-wt or EGFP protein followed by stimulation with endothelin-1 (ET-1) for 24 hours.
Neonatal rat cardiomyocyte cultures were prepared as described previously (10).
A further assay deals with protein phosphatase 2A. Particulars: cited from earlier work.

“Also recorded” adds a separate entry of the source.

In the case of `CNC[C@H](O)c1cccc(O)c1` [phenylephrine], in the assay with PIM-1, the “PIM-1 protein level (immunoblot)” value was “did not markedly increase Pim-1 protein expression” and the “PIM-1 immunoreactivity by confocal microscopy” value (“PIM-1 immunoreactivity” for short) is listed as “not induced”. Besides, the “PIM-1 protein level (immunoblot)” value in the assay on PIM-1 (listed as phenyl-ephedrine) is “little or no increase”.

Consider `O=c1c(O)c(-c2ccc(O)c(O)c2)oc2cc(O)c(O)c(O)c12` [quercetagetin], for which the “cell surface of Pim-1 expressing NRCM cultures” value in assay [1] was “significantly larger surface”.

On to `C=C1[C@@H](O)[C@@H]2O[C@]3(CC[C@H](/C=C/[C@@H](C)[C@@H]4CC(C)=C[C@@]5(O[C@H](C[C@@](C)(O)C(=O)O)CC[C@H]5O)O4)O3)CC[C@H]2O[C@@H]1[C@@H](O)C[C@H](C)[C@H]1O[C@@]2(CCCCO2)CC[C@H]1C` [Okadaic acid], for which the “effect on negative regulation of PIM-1 by protein phosphatase 2A” value with protein phosphatase 2A is given as “inhibit or block negative regulation of PIM-1 by protein phosphatase 2A”.

For the molecule Leukemia Inhibitory Factor [LIF], in the assay with PIM-1, the “PIM-1 protein level (immunoblot)” value is recorded as “significantly increased PIM-1 expression”, the “induction of PIM-1 expression” value is 2.8 fold and the “PIM-1 immunoreactivity” value is “induced PIM-1 immunoreactivity”.

In the case of Insulin-like Growth Factor [IGF-1], in the assay with PIM-1, the “PIM-1 protein level (immunoblot)” value is “significantly increased PIM-1 expression; also recorded: Induction is evident”, the “induction of PIM-1 expression” value was determined as 2.7 fold and the “PIM-1 immunoreactivity” value was “induced PIM-1 immunoreactivity”.

As for `COC[C@H]1OC(=O)c2coc3c2[C@@]1(C)C1=C(C3=O)[C@@H]2CCC(=O)[C@@]2(C)C[C@H]1OC(C)=O` [wortmannin], the “reduction of PIM-1 expression in response to IGF-1 treatment” value in the assay with PIM-1 (in the presence of the inhibitor or inactivated AKT) is given as 4.0 fold.

With `CCCCCCCCCCCCCC(=O)O[C@@H]1[C@@H](C)[C@@]2(O)[C@@H](C=C(CO)C[C@]3(O)C(=O)C(C)=C[C@@H]23)[C@@H]2C(C)(C)[C@]12OC(C)=O` [PMA], in the assay on PIM-1, the “PIM-1 protein level (immunoblot)” value is recorded as “significantly increased PIM-1 expression; also recorded: Induction is evident”, the “induction of PIM-1 expression” value is given as 2.3 fold and the “PIM-1 immunoreactivity” value is recorded as “induced PIM-1 immunoreactivity”.

Turning to `C=C[C@@]1(C)CC(=O)[C@]2(O)[C@@]3(C)[C@@H](O)CCC(C)(C)[C@@H]3[C@H](O)[C@H](OC(C)=O)[C@@]2(C)O1` [forskolin], the “reduction of PIM-1 expression” value with PIM-1 (versus control cultures) amounted to 45%.

Take `C[C@@H]1C[C@H]2[C@@H]3CCC4=CC(=O)C=C[C@]4(C)[C@@]3(F)[C@@H](O)C[C@]2(C)[C@@]1(O)C(=O)CO` [dexamethasone]: the “induction of PIM-1 expression” value in the assay on PIM-1 was 2.0 fold.

As for endothelin-1, in the assay with PIM-1, the “PIM-1 protein level (immunoblot)” value is recorded as “little or no increase; also recorded: did not markedly increase Pim-1 protein expression” and the “PIM-1 immunoreactivity” value is reported as “not induced”.

B1: SV40 small T antigen: viral protein said to block negative regulation of PIM-1 by protein phosphatase 2A (protein, UniProt P03081 1-174, looked up)
Small t antigen: MDKVLNREESLQLMDLLGLERSAWGNIPLMRKAYLKKCKEFHPDKGGDEEKMKKMNTLYKKMEDGVKYAHQPDFGGFWDATEVFASSLNPGVDAMYCKQWPECAKKMSANCICLLCLLRMKHENRKLYRKDPLVWVDCYCFDCFRMWFGLDLCEGTLLLWCDIIGQTTYRDLKL
Regarding B1, the “effect on negative regulation of PIM-1 by protein phosphatase 2A” value in the assay with protein phosphatase 2A is recorded as “inhibit or block negative regulation of PIM-1 by protein phosphatase 2A”.
